Results taken from patent US9351978B2, “Neurogenesis screening method and uses thereof” (Mead Johnson Nutrition Company, priority 2012, dated 2016).

Columns and labels:
hADSCs = assay: neurogenesis of hADSCs, neuronal morphology under phase contrast microscopy; format: cell-based, human
Description: hADSCs were purchased from Invitrogen, also known as Life Technologies, of Carlsbad, Calif., U.S.A., and were cultured as near confluent monolayers in 100 mm culture plates within a maintenance media consisting of Complete MesenPro RS medium with growth supplement and L-glutamine obtained from Invitrogen®. The process of culturing, passage, and seeding the hADSCs is described below.
The subculture of hADSCs was performed when cell culture reached confluence. To passage hADSCs, the following procedure is used: i) aspirate the Complete MesenPRO RS medium from the cells; ii) rinse the surface area of the cell layer with Dulbecco's phosphate buffered saline (DBPS) buffer by adding the DPBS to the side of the vessel opposite the attached cell layer and rocking the vessel back and forth several times; iii) remove the DPBS by aspiration and discard; iv) detach the cells by adding a sufficient volume of pre-warmed trypsin-EDTA solution without phenol red to cover the cell layer; v) incubate at 37° C. for approximately 7 minutes; vi) observe the cells under a microscope to determine if additional incubation is needed; vii) add 3 mL of the maintenance media to the plate, mix the cell suspension, add the suspension to a 15 mL centrifuge tube and centrifuge at 210 g for 5 minutes; viii) determine the total number of cells and percent viability using a hemacytometer; ix) add Complete MesenPRO RS medium to each vessel so that the final culture volume is 0.2 mL-0.5 mL per cm^2; x) seed the cells by adding the appropriate volume of cells to each vessel and incubate at 37° C., 5% CO2 and 90% humidity; and xi) three or four days after seeding, completely remove the medium and replace with an equal volume of Complete MesenPRO RS medium.
Before seeding the passaged hADSCs on fresh culture plates, the surfaces of the culture ware are washed with sterile DPBS solution three times, followed by multiple rinses with sterile water. The first layer of coating is poly-L-ornithine. […]

hNSCs = assay: neurogenesis of hNSCs, morphological changes under inverted fluorescent microscopy; format: cell-based, human; conditions: 72 hours
Description: Briefly, hNSCs were purchased from Millipore, Bellerica, Mass., U.S.A., with genetic modification to constitutively express green fluorescent protein (“GFP”). The hNSCs were cultured on laminin coated plates as recommended by the manufacturer. Both laminin and DEME/F12 were obtained from Millipore. Laminin was diluted with DMEM/F12 to 20 μg/mL. 10 ml of diluted laminin solution was added to 10 cm tissue culture dish. Then the culture dish was incubated in a 37° C., 5% CO2 incubator overnight. Just before use, the laminin solution was aspirated and rinsed once with sterile DPBS solution. hNSCs were cultured in the ReNcell NSC maintenance medium (Millipore) supplied with 20 ng/mL bFGF and 20 ng/mL EGF in a 37° C., 5% CO2 incubator. Medium was exchanged with fresh medium containing bFGF and EGF every other day thereafter. The cells reached 80% confluence 2 to 3 days after this step.
After hNSCs reach 80% confluence, hNSCs were ready for the differentiation experiment. Before seeding, a 96-well plate was freshly coated with 20 μg/mL laminin solution followed by a brief DPBS rinse as described above. Culture medium was removed carefully and hNSCs were dissociated within 3 ml Accutase (Millipore) in a 37° C., 5% CO2 incubator for 3 minutes. Then 5 ml of ReNcell NSC maintenance medium (Millipore) supplied with 20 ng/mL bFGF and 20 ng/mL EGF were added. The cell suspension was then transferred a sterile 15 ml conical tube and the cells were pelleted by the centrifugation at 300×g for 5 minutes. Supernatant was removed. 2 ml medium was then applied to the tube and hNSCs was resuspended thoroughly. The hNSCs were seeded on a 96-well plate at a density of 1×10^4 cell/ml (1000 cells/well, 100 μl/well).
After attaching to the culture surface, the culture medium was switched to serum-free differentiation medium in the presence of cholesterol, or DHA, or no treatment. […]

Compound: CC(C)CCC[C@@H](C)[C@H]1CC[C@H]2[C@@H]3CC=C4C[C@@H](O)CC[C@]4(C)[C@H]3CC[C@]12C [cholesterol]
- effect to enhance neurogenesis (neuronal morphology displayed by the hADSCs) (hADSCs; 5 μM, among the concentrations tested, phase contrast microscopy at 24, 48 and 96 hours, FIG. 2B): strongest effect to enhance neurogenesis
- neurogenesis compared to the negative control (hADSCs; addition of cholesterol vs no treatment): promoted neurogenesis when compared to the negative control
- morphology of treated hADSCs (outgrowth) (hADSCs; hADSCs treated with cholesterol, FIG. 2B): long outgrowth with some branching
- morphology of hNSCs observed (hNSCs; 25 μM): shrinking cellular bodies, projecting neurities and were developing dendrites
- neurogenesis of hNSCs compared to no treatment (hNSCs; 25 μM, serum-free differentiation medium): dramatically promoted neurogenesis
- length of neurite outgrowth (hNSCs; cholesterol 25 μM compared with DHA at 20 μM): comparable to DHA
